Data reported in ChEMBL document CHEMBL5316343, “Design, Synthesis, and Biological Evaluation of a Potent Dual EZH2-BRD4 Inhibitor for the Treatment of Some Solid Tumors” (J Med Chem, 2023).
Active and inactive are the calls of the source. The rule behind the calls is not given here.

Columns and labels:
[1] = biological target: T1, Histone-lysine N-methyltransferase EZH2 (Homo sapiens, UniProt Q15910); assay: Inhibition of EZH2 (unknown origin) by radiometric assay
Target sequence in this assay (Q15910 whole entry): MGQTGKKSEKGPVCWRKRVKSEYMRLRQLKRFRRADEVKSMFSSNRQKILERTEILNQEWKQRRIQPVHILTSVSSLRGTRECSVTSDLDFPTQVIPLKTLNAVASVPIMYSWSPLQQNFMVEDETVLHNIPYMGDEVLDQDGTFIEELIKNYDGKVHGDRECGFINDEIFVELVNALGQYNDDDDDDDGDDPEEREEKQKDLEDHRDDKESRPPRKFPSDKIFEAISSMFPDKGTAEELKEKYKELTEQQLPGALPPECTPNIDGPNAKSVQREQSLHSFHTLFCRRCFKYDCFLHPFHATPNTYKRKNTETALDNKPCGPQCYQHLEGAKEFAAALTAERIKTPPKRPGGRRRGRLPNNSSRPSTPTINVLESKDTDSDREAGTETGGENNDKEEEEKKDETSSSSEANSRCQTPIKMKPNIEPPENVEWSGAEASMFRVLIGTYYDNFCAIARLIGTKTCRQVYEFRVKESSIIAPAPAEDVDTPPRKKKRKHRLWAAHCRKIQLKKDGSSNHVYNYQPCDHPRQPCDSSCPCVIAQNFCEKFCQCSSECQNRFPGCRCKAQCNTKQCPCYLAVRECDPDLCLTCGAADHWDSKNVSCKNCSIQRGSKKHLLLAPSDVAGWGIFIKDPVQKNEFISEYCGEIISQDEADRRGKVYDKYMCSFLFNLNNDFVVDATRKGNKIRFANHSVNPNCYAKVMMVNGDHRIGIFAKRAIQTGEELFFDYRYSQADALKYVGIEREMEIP

[2] = biological target: Bromodomain-containing protein 4 (Homo sapiens, UniProt O60885); assay: Inhibition of BRD4 (unknown origin) by HTRF analysis
BXPC-3 [3] = assay: Antitumor activity against human BXPC-3 cells xenografted in Balb/c nude mouse assessed as reduction in tumor growth at 60 mg/kg, ip administered daily for 30 days; format: functional, organism-based; settings: time 30.0 day
BXPC-3 [4] = assay: Induction of apoptosis in human BXPC-3 cells assessed as late apoptotic cells at 5 uM incubated for 48 hrs by Annexin V-FITC/PI staining based flow cytometric analysis (reference value: 4.38 %); format: functional
BXPC-3 [5] = assay: Inhibition of colony formation in human BXPC-3 cells assessed as reduction in number of cell colony at 0.1 to 2.5 uM incubated for 10 to 14 days in the presence of JQ1 by crystal violet staining based analysis; format: functional; settings: dose 0.1-2.5 µM, time 10-14 day
BXPC-3 [6] = assay: Inhibition of colony formation in human BXPC-3 cells incubated for 10 to 14 days in the presence of JQ1 by crystal violet staining based analysis; format: functional, cell-based; settings: dose 0.1-2.5 µM, time 10-14 day
Mus musculus [7] = assay: In vivo inhibition of EZH2 in Balb/c nude mouse xenografted with human BXPC-3 cells assessed as reduction in H3K27me3 level in tumor at 60 mg/kg, ip administered daily for 30 days by IHC analysis; format: functional, organism-based; settings: time 30.0 day
MDA-MB-231 [8] = assay: Inhibition of cell proliferation in human MDA-MB-231 cells assessed as decrease in c-Myc protein level at 5 uM incubated for 48 hrs by IHC analysis; format: functional, cell-based
MDA-MB-231 [9] = assay: Induction of apoptosis in human MDA-MB-231 cells assessed as late apoptotic cells at 5 uM incubated for 48 hrs by Annexin V-FITC/PI staining based flow cytometric analysis (reference value: 1.06%); format: functional
MDA-MB-231 [10] = assay: Inhibition of colony formation in human MDA-MB-231 cells assessed as reduction in number of cell colonies at 0.1 to 2.5 uM incubated for 10 to 14 days in the presence of JQ1 by crystal violet staining based analysis; format: functional; settings: dose 0.1-2.5 µM, time 10-14 day
BXPC-3 [11] = assay: Induction of apoptosis in human BXPC-3 cells assessed as viable cells at 5 uM incubated for 48 hrs by Annexin V-FITC/PI staining based flow cytometric analysis (reference value: 90.70%); format: functional; settings: read-out: Activity
[12] = biological target: T1, Histone-lysine N-methyltransferase EZH2; assay: Inhibition of EZH2 in human BX-PC-3 cells assessed as decrease in H3K27me3 level at 5 uM by fluorescence based analysis; format: cell-based; settings: BXPC-3
Target sequence in this assay (Q15910 whole entry, looked up): as the sequence (Q15910 whole entry) above

MDA-MB-231 [13] = assay: Induction of apoptosis in human MDA-MB-231 cells assessed as viable cells at 5 uM incubated for 48 hrs by Annexin V-FITC/PI staining based flow cytometric analysis (reference value: 97.63%); format: functional; settings: read-out: Activity
[14] = biological target: T1, Histone-lysine N-methyltransferase EZH2; assay: Inhibition of EZH2 in human BXPC-3 cells assessed as increase in H3K27ac level at 5 uM by fluorescence based analysis; format: cell-based
Target sequence in this assay (Q15910 whole entry, looked up): as the sequence (Q15910 whole entry) above

MDA-MB-231 [15] = assay: Induction of apoptosis in human MDA-MB-231 cells assessed as necrotic cells at 5 uM incubated for 48 hrs by Annexin V-FITC/PI staining based flow cytometric analysis (reference value: 0.63%); format: functional
MDA-MB-231 [16] = assay: Inhibition of colony formation in human MDA-MB-231 cells assessed as reduction in colony size at 0.1 to 2.5 uM incubated for 10 to 14 days in the presence of JQ1 by crystal violet staining based analysis; format: functional, cell-based; settings: dose 0.1-2.5 µM, time 10-14 day
BXPC-3 [17] = assay: Inhibition of colony formation in human BXPC-3 cells assessed as reduction in colony size at 0.1 to 2.5 uM incubated for 10 to 14 days in the presence of JQ1 by crystal violet staining based analysis; format: functional, cell-based; settings: dose 0.1-2.5 µM, time 10-14 day
MDA-MB-231 [18] = assay: Inhibition of colony formation in human MDA-MB-231 cells assessed as reduction in number of cell colonies at 2.5 uM incubated for 10 to 14 days by crystal violet staining based analysis; format: functional; settings: time 10-14 day
BXPC-3 [19] = assay: Induction of apoptosis in human BXPC-3 cells assessed as necrotic cells at 5 uM incubated for 48 hrs by Annexin V-FITC/PI staining based flow cytometric analysis (reference value: 1.65 %); format: functional
MDA-MB-231 [20] = assay: Inhibition of cell proliferation in human MDA-MB-231 cells assessed as decrease in c-Myc mRNA level at 5 uM incubated for 48 hrs by qRT-PCR analysis; format: functional, cell-based
[21] = biological target: T2, Histone-lysine N-methyltransferase EZH1 (Homo sapiens, UniProt Q92800); assay: Inhibition of EZH1 (unknown origin) by radiometric assay
T2 sequence (Q92800 whole entry): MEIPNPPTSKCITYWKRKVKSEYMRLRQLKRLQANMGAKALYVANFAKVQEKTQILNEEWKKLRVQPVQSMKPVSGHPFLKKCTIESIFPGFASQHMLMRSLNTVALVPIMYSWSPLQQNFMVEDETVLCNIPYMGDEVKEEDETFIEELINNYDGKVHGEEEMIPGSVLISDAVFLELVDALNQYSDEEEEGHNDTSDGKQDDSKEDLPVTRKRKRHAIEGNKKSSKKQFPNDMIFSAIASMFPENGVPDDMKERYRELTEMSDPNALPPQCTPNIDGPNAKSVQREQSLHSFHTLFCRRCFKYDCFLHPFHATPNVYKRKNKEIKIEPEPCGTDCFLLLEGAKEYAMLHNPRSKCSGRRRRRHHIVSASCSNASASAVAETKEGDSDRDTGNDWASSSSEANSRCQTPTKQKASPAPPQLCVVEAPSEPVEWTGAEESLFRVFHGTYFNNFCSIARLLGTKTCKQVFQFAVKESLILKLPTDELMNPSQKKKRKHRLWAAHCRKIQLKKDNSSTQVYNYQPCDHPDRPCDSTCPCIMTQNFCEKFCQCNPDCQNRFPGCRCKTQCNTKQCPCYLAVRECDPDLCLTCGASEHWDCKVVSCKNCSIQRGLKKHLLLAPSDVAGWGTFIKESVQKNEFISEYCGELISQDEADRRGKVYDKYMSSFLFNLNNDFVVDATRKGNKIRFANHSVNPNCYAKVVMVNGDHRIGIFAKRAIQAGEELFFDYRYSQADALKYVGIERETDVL

BXPC-3 [22] = assay: Inhibition of colony formation in human BXPC-3 cells assessed as reduction in colony size at 2.5 uM incubated for 10 to 14 days by crystal violet staining based analysis; format: functional, cell-based; settings: time 10-14 day
BXPC-3 [23] = assay: Induction of apoptosis in human BXPC-3 cells assessed as early apoptotic cells at 5 uM incubated for 48 hrs by Annexin V-FITC/PI staining based flow cytometric analysis (reference value: 3.28 %); format: functional
MDA-MB-231 [24] = assay: Induction of apoptosis in human MDA-MB-231 cells assessed as early apoptotic cells at 5 uM incubated for 48 hrs by Annexin V-FITC/PI staining based flow cytometric analysis (reference value: 0.69%); format: functional
[25] = biological target: T1, Histone-lysine N-methyltransferase EZH2; assay: Inhibition of EZH2 in human MDA-MB-231 cells assessed as increase in H3K27ac level at 5 uM by fluorescence based analysis; format: cell-based
Target sequence in this assay (Q15910 whole entry, looked up): as the sequence (Q15910 whole entry) above

BXPC-3 [26] = assay: Inhibition of cell proliferation in human BXPC-3 cells assessed as decrease in c-Myc mRNA level at 5 uM incubated for 48 hrs by qRT-PCR analysis; format: functional, cell-based
[27] = Toxicity in Balb/c nude mouse xenografted with human BXPC-3 cells assessed as effect on body weight at 60 mg/kg, ip administered daily for 30 days; format: organism-based; settings: in vivo, 720 h, time 30 day
Mus musculus [28] = assay: In vivo inhibition of EZH2 in Balb/c nude mouse xenografted with human BXPC-3 cells assessed as increase in H3K27ac level in tumor at 60 mg/kg, ip administered daily for 30 days by IHC analysis; format: functional, organism-based; settings: time 30.0 day
[29] = biological target: T1, Histone-lysine N-methyltransferase EZH2; assay: Inhibition of EZH2 in human MDA-MB-231 cells assessed as decrease in H3K27me3 level at 5 uM by fluorescence based analysis; format: cell-based
Target sequence in this assay (Q15910 whole entry, looked up): as the sequence (Q15910 whole entry) above

MDA-MB-231 [30] = assay: Inhibition of colony formation in human MDA-MB-231 cells incubated for 10 to 14 days in the presence of JQ1 by crystal violet staining based analysis; format: functional, cell-based; settings: dose 0.1-2.5 µM, time 10-14 day
BXPC-3 [31] = assay: Inhibition of colony formation in human BXPC-3 cells assessed as reduction in number of cell colonies at 2.5 uM incubated for 10 to 14 days by crystal violet staining based analysis; format: functional; settings: time 10-14 day
BXPC-3 [32] = assay: Inhibition of cell proliferation in human BXPC-3 cells assessed as decrease in c-Myc protein level at 5 uM incubated for 48 hrs by IHC analysis; format: functional, cell-based
MDA-MB-231 [33] = assay: Inhibition of colony formation in human MDA-MB-231 cells assessed as reduction in colony size at 2.5 uM incubated for 10 to 14 days by crystal violet staining based analysis; format: functional, cell-based; settings: time 10-14 day

Structure (SMILES): Cc1cc(C)c(CNC(=O)c2cc(-c3cn(C)c(=O)c4[nH]ccc34)cc3c2c(C)cn3CC2CCCCC2)c(=O)[nH]1
- IC50 [1]: 12 nM
- IC50 [2]: > 300 nM

Structure (SMILES): Cc1[nH]c(=O)c(CNC(=O)c2cc(-c3cn(C)c(=O)c4[nH]ccc34)cc3c2c(C)cn3CC2CCCCC2)c2c1CCCC2
- IC50 [1]: > 100 nM
- IC50 [2]: > 300 nM

Structure (SMILES): Cc1[nH]c(=O)c(CNC(=O)c2cc(-c3cn(C)c(=O)c4[nH]ccc34)cc3[nH]ccc23)c2c1CCCC2
- IC50 [1]: 100 nM
- IC50 [2]: > 300 nM

Structure (SMILES): Cc1cc(C)c(CNC(=O)c2cc(-c3cn(C)c(=O)c4[nH]ccc34)cc3c2ccn3CC2CCCCC2)c(=O)[nH]1
- IC50 [1]: 63 nM
- IC50 [2]: 187 nM

Structure (SMILES): CCC(C)n1cc(C)c2c(C(=O)NCc3c(C)cc(C)[nH]c3=O)cc(-c3ccc(N4CCNCC4)nc3)cc21 (stereo unspecified)
- Activity (BXPC-3 [3]): inactive
- Activity (BXPC-3 [4]): 3.86%
- inhibition (BXPC-3 [5]): Active
- inhibition (BXPC-3 [6]): Dose-Dependent Effect
- inhibition (Mus musculus [7]): Active
- inhibition (MDA-MB-231 [8]): inactive
- Activity (MDA-MB-231 [9]): 0.92%
- inhibition (MDA-MB-231 [10]): Active
- viability at 5 µM (BXPC-3 [11]): 91.9%
- inhibition [12]: Active
- viability at 5 µM (MDA-MB-231 [13]): 97%
- inhibition [14]: Active
- Activity (MDA-MB-231 [15]): 0.3%
- inhibition (MDA-MB-231 [16]): Active
- inhibition (BXPC-3 [17]): Active
- inhibition (MDA-MB-231 [18]): inactive
- Activity (BXPC-3 [19]): 0.98%
- inhibition (MDA-MB-231 [20]): inactive
- IC50 [21]: 124 nM
- inhibition (BXPC-3 [22]): inactive
- Activity (BXPC-3 [23]): 3.18%
- Activity (MDA-MB-231 [24]): 1.83%
- inhibition [25]: Active
- inhibition (BXPC-3 [26]): inactive
- Activity [27]: Non-Toxic
- inhibition (Mus musculus [28]): Active
- inhibition [29]: Active
- inhibition (MDA-MB-231 [30]): Dose-Dependent Effect
- inhibition (BXPC-3 [31]): inactive
- inhibition (BXPC-3 [32]): inactive
- inhibition (MDA-MB-231 [33]): inactive

Structure (SMILES): CCC(CC)n1ccc2c(C(=O)NCc3c4c(c(C)[nH]c3=O)CCCC4)cc(-c3cn(C)c(=O)c4[nH]ccc34)cc21
- IC50 [1]: 16 nM
- IC50 [2]: > 300 nM

Structure (SMILES): Cc1[nH]c(=O)c(CNC(=O)c2cc(-c3cn(C)c(=O)c4[nH]ccc34)cc3[nH]cc(C)c23)c2c1CCCC2
- IC50 [1]: > 100 nM
- IC50 [2]: > 300 nM

Structure (SMILES): CCC(C)n1ccc2c(C(=O)NCc3c4c(c(C)[nH]c3=O)CCCC4)cc(-c3cn(C)c(=O)c4[nH]ccc34)cc21 (stereo unspecified)
- IC50 [1]: 5.2 nM
- IC50 [2]: > 300 nM

Structure (SMILES): Cc1cc(C)c(CNC(=O)c2cc(-c3cn(C)c(=O)c4[nH]ccc34)cc3c2ccn3C2CCCC2)c(=O)[nH]1
- IC50 [1]: 5 nM
- IC50 [2]: 278 nM

Structure (SMILES): CCCC(C)n1ccc2c(C(=O)NCc3c(C)cc(C)[nH]c3=O)cc(-c3cn(C)c(=O)c4[nH]ccc34)cc21 (stereo unspecified)
- IC50 [1]: 2.8 nM
- IC50 [2]: 173 nM

Structure (SMILES): Cc1cc(C)c(CNC(=O)c2cc(-c3cn(C)c(=O)c4[nH]ccc34)cc3[nH]cc(C)c23)c(=O)[nH]1
- IC50 [1]: > 100 nM
- IC50 [2]: > 300 nM
